One assay has as its target T1, TBK1 (Homo sapiens, UniProt Q9UHD2).
T1 sequence (Q9UHD2 1-729): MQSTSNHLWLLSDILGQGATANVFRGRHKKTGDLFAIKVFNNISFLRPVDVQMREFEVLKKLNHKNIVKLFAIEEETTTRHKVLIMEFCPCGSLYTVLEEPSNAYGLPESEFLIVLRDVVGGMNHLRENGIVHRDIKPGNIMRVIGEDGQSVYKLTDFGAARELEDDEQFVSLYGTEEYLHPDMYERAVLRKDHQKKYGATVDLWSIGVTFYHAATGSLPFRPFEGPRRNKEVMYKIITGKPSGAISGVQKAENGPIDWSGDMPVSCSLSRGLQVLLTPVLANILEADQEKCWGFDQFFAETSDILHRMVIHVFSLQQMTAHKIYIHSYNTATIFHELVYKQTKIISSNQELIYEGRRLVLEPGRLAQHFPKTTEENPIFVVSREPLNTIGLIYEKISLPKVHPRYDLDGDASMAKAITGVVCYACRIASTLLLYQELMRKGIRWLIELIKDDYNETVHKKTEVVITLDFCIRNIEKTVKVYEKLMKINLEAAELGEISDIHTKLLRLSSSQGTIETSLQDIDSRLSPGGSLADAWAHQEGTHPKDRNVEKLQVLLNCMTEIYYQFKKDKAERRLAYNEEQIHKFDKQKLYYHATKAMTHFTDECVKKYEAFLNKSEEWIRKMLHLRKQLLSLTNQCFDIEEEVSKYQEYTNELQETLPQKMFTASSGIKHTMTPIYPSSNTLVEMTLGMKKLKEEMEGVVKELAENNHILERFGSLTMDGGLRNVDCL
Description: TBK biochemical assay. The note with it: 10 point 1:4 dose response, 30 uM top concentration, 90 min at 25° C., LabChip EZ Reader II; read-out: TBK1_IC50. In a few lines: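 Read-out was a Caliper LabChip mobility-shift assay, run after a 90-min, 25 °C reaction of TBK1 with substrate and compounds, quenched with stop buffer. Control wells received staurosporine at 10 uM final.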

The target of a further assay is T2, IKKε (Homo sapiens, UniProt Q14164).
T2 sequence (Q14164 1-716): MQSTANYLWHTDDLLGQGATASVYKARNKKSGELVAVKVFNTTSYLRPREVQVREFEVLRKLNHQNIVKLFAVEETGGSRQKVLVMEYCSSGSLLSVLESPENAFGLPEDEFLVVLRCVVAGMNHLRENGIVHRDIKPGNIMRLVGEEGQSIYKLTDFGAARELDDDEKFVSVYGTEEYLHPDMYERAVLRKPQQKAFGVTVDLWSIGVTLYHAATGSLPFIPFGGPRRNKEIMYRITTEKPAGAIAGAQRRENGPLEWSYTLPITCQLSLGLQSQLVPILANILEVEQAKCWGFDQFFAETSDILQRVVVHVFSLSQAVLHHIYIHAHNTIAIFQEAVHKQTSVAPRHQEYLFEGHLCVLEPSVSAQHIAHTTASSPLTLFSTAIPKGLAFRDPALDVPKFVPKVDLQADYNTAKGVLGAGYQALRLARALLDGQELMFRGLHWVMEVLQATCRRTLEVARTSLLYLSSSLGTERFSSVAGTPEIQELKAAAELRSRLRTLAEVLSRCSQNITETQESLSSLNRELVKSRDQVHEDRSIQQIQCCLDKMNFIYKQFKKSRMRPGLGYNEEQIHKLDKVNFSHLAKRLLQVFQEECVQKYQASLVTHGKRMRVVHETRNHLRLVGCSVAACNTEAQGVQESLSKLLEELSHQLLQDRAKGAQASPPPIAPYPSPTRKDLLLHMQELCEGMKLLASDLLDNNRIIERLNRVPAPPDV
Kind of assay: IKKε biochemical assay. The note with it: 10 point 1:4 dose response, 30 uM top concentration, 90 min at 25° C., LabChip EZ Reader II; read-out: IKKε_IC50. A digest of the protocol: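 Mobility-shift LabChip read-out followed a 90 min, 25° C. reaction of IKKε with substrate and test compound, with DMSO held at 1% final. Reactions were ended with stop buffer. Wells with 10 uM final staurosporine defined complete inhibition, and DMSO-only wells the uninhibited level.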

With `COc1cccc(Nc2nccc(-c3ccc(O[C@@H]4CCN(C(=O)[C@H](C)O)CC4(F)F)c(C#N)c3)n2)n1` [Example 241, 2-[[(4R)-3,3-difluoro-1-[(2S)-2-hydroxypropanoyl]piperidin-4-yl]oxy]-5-[2-[(6-methoxypyridin-2-yl)amino]pyrimidin-4-yl]benzonitrile], the IC50 on TBK1 and at IKKε was < 100 nM in each case.

In the case of `COc1ccc(Nc2nccc(-c3ccc(OC4CCN(C(=O)[C@H](C)O)CC4(F)F)c(C#N)c3)n2)nc1OC` (stereo partly drawn) [Example 211, 2-[3,3-Difluoro-1-((S)-2-hydroxy-propionyl)-piperidin-4-yloxy]-5-[2-(5,6-dimethoxy-pyridin-2-ylamino)-pyrimidin-4-yl]-benzonitrile], the IC50 on TBK1 and on IKKε was < 100 nM throughout.

On to `COc1nc(Nc2nccc(-c3ccc(O[C@H]4CCN(C(=O)[C@@H](O)CO)C[C@@H]4F)c(C#N)c3)n2)ccc1N1CCN(C2COC2)CC1` [Example 197, 2-[(3S,4S)-1-((S)-2,3-Dihydroxy-propionyl)-3-fluoro-piperidin-4-yloxy]-5-{2 [6-methoxy-5-(4-oxetan-3-yl-piperazin-1-yl)-pyridin-2-ylamino]-pyrimidin-4-yl}-benzonitrile], for which the IC50 on TBK1 and on IKKε was < 100 nM in each case.

Consider `C[C@@H](O)C(=O)N1CC(COc2ccc(-c3ccnc(Nc4ccc(N5CCN(C6COC6)CC5)cc4)n3)cc2C#N)C1` [Example 278, 2-([1-[(2R)-2-hydroxypropanoyl]azetidin-3-yl]methoxy)-5-[2-([4-[4-(oxetan-3-yl)piperazin-1-yl]phenyl]amino)pyrimidin-4-yl]benzonitrile], for which the IC50 on TBK1 and on IKKε was 100 to 1000 nM each time.

Consider `CN1CCN(c2ccc(Nc3nccc(-c4ccc(O[C@H]5CCN(C)C[C@H]5F)c(C#N)c4)n3)nc2)CC1` [Example 84, 2-[[(3R,4S)-3-fluoro-1-methylpiperidin-4-yl]oxy]-5-(2-[[5-(4-methylpiperazin-1-yl)pyridin-2-yl]amino]pyrimidin-4-yl)benzonitrile], for which the IC50 at TBK1 is 100 to 1000 nM; on IKKε, < 100 nM.

`COc1nc(Nc2nccc(-c3ccc(OC4CCOCC4)c(C#N)c3)n2)ccc1C(=O)NCCO` [Example 2, 6-([4-[3-cyano-4-(oxan-4-yloxy)phenyl]pyrimidin-2-yl]amino)-N-(2-hydroxyethyl)-2-methoxypyridine-3-carboxamide]: the IC50 at TBK1 and at IKKε was < 100 nM throughout.

`N#Cc1cc(-c2ccnc(Nc3cccc(C4CCN(C5COC5)CC4)c3)n2)ccc1OC1CCN(C(=O)[C@@H](O)CO)CC1(F)F` (stereo partly drawn) [Example 276, 2-[1-((S)-2,3-Dihydroxy-propionyl)-3,3-difluoro-piperidin-4-yloxy]-5-{2-[3-(l-oxetan-3-yl-piperidin-4-yl)-phenylamino]-pyrimidin-4-yl}-benzonitrile]: the IC50 at TBK1 and on IKKε was < 100 nM throughout.

Take `COc1nc(Nc2nccc(-c3ccc(OC4CCOCC4)c(C#N)c3)n2)ccc1C1CCN(C)CC1F` (centres unmarked) [Example 43, 5-(2-[[5-(3-fluoro-1-methylpiperidin-4-yl)-6-methoxypyridin-2-yl]amino]pyrimidin-4-yl)-2-(oxan-4-yloxy)benzonitrile]: the IC50 on TBK1 and on IKKε was < 100 nM throughout.

For the molecule `COc1nc(Nc2nccc(-c3ccc(OC4CCNC4)c(C#N)c3)n2)ccc1N1CCN(C2COC2)CC1` (centres unmarked) [Example 182, 5-[2-([6-methoxy-5-[4-(oxetan-3-yl)piperazin-1-yl]pyridin-2-yl]amino)pyrimidin-4-yl]-2-(pyrrolidin-3-yloxy)benzonitrile], the IC50 on TBK1 and on IKKε was < 100 nM in each case.

As for `COc1nc(Nc2nccc(-c3ccc(OC4CCN(C(=O)CO)CC4(F)F)c(C#N)c3)n2)ccc1N1CCN(C)CC1` (centres unmarked) [Example 99, 2-[[3,3-difluoro-1-(2-hydroxyacetyl)piperidin-4-yl]oxy]-5-(2-[[6-methoxy-5-(4-methylpiperazin-1-yl)pyridin-2-yl]amino]pyrimidin-4-yl)benzonitrile], the IC50 on TBK1 and at IKKε was < 100 nM each time.

As to `COc1nc(Nc2nccc(-c3ccc(OC4CCNCC4(F)F)c(C#N)c3)n2)ccc1N1CCN(C2COC2)C[C@H]1C` (stereo partly drawn) [Example 129, 2-(3,3-Difluoro-piperidin-4-yloxy)-5-{2-[6-methoxy-5-((R)-2-methyl-4-oxetan-3-yl-piperazin-1-yl)-pyridin-2-ylamino]-pyrimidin-4-yl}-benzonitrile], the IC50 at TBK1 and at IKKε was < 100 nM each time.

As to `COc1cc(Nc2nccc(-c3ccc(OC4CCOCC4)c(C#N)c3)n2)cnc1N1CCN(C)CC1` [Example 54, 5-(2-[[5-methoxy-6-(4-methylpiperazin-1-yl)pyridin-3-yl]amino]pyrimidin-4-yl)-2-(oxan-4-yloxy)benzonitrile], the IC50 on TBK1 and at IKKε was < 100 nM each time.

For `COc1nc(Nc2nccc(-c3ccc(OC4CCOCC4)c(C#N)c3)n2)ccc1C(=O)N1CCS(=O)(=O)CC1` [Example 5, 5-{2-[5-(1,1-Dioxo-thiomorpholine-4-carbonyl)-6-methoxy-pyridin-2-ylamino]-pyrimidin-4-yl}-2-(tetrahydro-pyran-4-yloxy)-benzonitrile], the IC50 on TBK1 and on IKKε was < 100 nM each time.

In the case of `COc1nc(Nc2nccc(-c3ccc(OC4CCNCC4(F)F)c(C#N)c3)n2)ccc1N1CCN(C)C[C@H]1C` (stereo partly drawn) [Example 108, 2-(3,3-Difluoro-piperidin-4-yloxy)-5-{2-[5-((R)-2,4-dimethyl-piperazin-1-yl)-6-methoxy-pyridin-2-ylamino]-pyrimidin-4-yl}-benzonitrile], the IC50 at TBK1 and at IKKε was < 100 nM each time.

Take `N#Cc1cc(-c2ccnc(Nc3ccc(N4CCN(C5CC5)CC4)cc3)n2)ccc1OC1CCOCC1` [Example 134, 5-{2-[4-(4-Cyclopropyl-piperazin-1-yl)-phenylamino]-pyrimidin-4-yl}-2-(tetrahydro-pyran-4-yloxy)-benzonitrile]: the IC50 at TBK1 and at IKKε was < 100 nM in each case.

Regarding `N#Cc1cc(-c2ccnc(Nc3ccc(N4CCN(C5COC5)CC4)cc3)n2)ccc1OC1CNC1` [Example 171, 2-(azetidin-3-yloxy)-5-[2-([4-[4-(oxetan-3-yl)piperazin-1-yl]phenyl]amino)pyrimidin-4-yl]benzonitrile], the IC50 on TBK1 and at IKKε was < 100 nM throughout.

In the case of `COc1nc(Nc2ncc(F)c(-c3ccc(O[C@H]4CCN(C(=O)[C@H](C)O)C[C@H]4F)c(C#N)c3)n2)ccc1N1CCN(C2COC2)CC1` [Example 298, 2-({3-fluoro-1-[(2S)-2-hydroxypropanoyl]piperidin-4-yl}oxy)-5-[5-fluoro-2-({6-methoxy-5-[4-(oxetan-3-yl)piperazin-1-yl]pyridin-2-yl}amino)pyrimidin-4-yl]benzonitrile], the IC50 at TBK1 and at IKKε was < 100 nM each time.

Turning to `COc1nc(Nc2nccc(-c3ccc(O[C@H]4CCN(C(=O)[C@H](C)O)C[C@H]4F)c(C#N)c3)n2)ccc1N1CCN(C2COC2)CC1` [Example 116, 2-[(3R,4S)-3-Fluoro-1-((S)-2-hydroxy-propionyl)-piperidin-4-yloxy]-5-{2-[6-methoxy-5-(4-oxetan-3-yl-piperazin-1-yl)-pyridin-2-ylamino]-pyrimidin-4-yl}-benzonitrile], the IC50 at TBK1 and on IKKε was < 100 nM in each case.

With `COc1nc(Nc2nccc(-c3ccc(OC4CCOCC4)c(C#N)c3)n2)ccc1C(=O)N1CCC(C(=O)O)CC1` [Example 13], the IC50 on TBK1 and on IKKε was < 100 nM throughout.

(Values after patent publication US20230019491A1, “PYRIMIDINE TBK/IKKe INHIBITOR COMPOUNDS AND USES THEREOF” (Merck Patent GmbH, priority 2017, published 2023).)
